# Data from patent US20060116410A1, “4-Aminomethyl benzamidine derivatives” (priority 2004, published 2006).
# Where a name gives a salt, the structure may show the parent alone.
# Molecular target: T1, factor VIIa/tissue factor complex (Homo sapiens, UniProt P08709)
# T1 construct: 9 nM of soluble factor VIIa
# Assay: Inhibition of amidolytic activity of factor VIIa/tissue factor complex, chromogenic substrate Chromozym-tPA
# Type: biochemical
# Settings: 26 nM tissue factor, 9 nM soluble factor VIIa, room temperature, pH 7.5
# Procedure: Measurements were carried out by an automated robotic assay on microtitre plates at room temperature. To this end, 100 μl of a solution of 26 nM of tissue factor, 9 nM of soluble factor VIIa and 8 mM of calcium chloride were added to 25 μl of a solution of the inhibitor in a buffer [pH 7.5, 100 mM, comprising 0.14M NaCl, 0.1M N-(2-hydroxyethyl)piperazine-N′-(2-ethanesulphonic acid) (HEPES), 0.5 mg/l of fatty-acid-free BSA (bovine serum albumin) and 0.05% NaN3] in each well of the plate. After an incubation time of 15 minutes the reaction was started by the addition of 50 μl of chromogenic substrate Chromozym-tPA (3.5 mM, MeSO2-D-Phe-Gly-Arg-paranitroamlide) and the hydrolysis of the substrate was followed spectrophotometrically on a kinetic microtitre plate reader over 10 minutes. Using the plot of the inhibition curves, the Ki values were determined according to the method described in Biochem. J. 55, 1953, 170-171.
# T1 sequence (P08709 213-466 limits assumed): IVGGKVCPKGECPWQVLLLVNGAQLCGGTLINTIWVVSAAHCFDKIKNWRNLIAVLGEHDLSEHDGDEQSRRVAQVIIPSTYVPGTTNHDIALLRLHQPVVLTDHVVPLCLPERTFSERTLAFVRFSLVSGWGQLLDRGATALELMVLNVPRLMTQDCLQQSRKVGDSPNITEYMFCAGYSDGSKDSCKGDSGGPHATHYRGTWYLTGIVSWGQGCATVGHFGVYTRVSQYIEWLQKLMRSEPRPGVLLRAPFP
# T1 sequence (P08709 61-212 limits assumed): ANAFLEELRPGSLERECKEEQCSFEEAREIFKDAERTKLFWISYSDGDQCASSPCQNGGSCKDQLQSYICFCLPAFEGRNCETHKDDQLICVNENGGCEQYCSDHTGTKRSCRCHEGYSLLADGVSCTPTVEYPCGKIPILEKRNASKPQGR
# T1 sequence (P13726 33-295 partner): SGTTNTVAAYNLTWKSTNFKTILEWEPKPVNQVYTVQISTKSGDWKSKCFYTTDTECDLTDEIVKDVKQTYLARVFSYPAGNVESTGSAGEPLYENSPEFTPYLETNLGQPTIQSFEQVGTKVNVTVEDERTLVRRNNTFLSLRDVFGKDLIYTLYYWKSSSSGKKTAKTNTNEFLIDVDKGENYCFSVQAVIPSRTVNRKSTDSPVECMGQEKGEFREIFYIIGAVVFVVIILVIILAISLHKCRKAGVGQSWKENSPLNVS
row,Ki,SMILES
1,51 nM,"Cc1cc(C(=O)NCc2ccc(C(=N)N)cc2OCCNC(=O)c2ccccc2F)ccc1F [Example 42.2, N-{4-carbamimidoyl-2-[2-(2-fluoro-benzoylamino)-ethoxy]-benzyl}-4-fluoro-3-methyl-benzamide hydrochloride]"
2,81 nM,"CCOC(=O)CNc1cc(C(=N)N)ccc1CNC(=O)c1cccc(C)c1 [Example 24.1, {5-carbamimidoyl-2-[(3-methyl-benzoylamino)-methyl]-phenylamino}-acetic acid ethyl ester hydrochloride]"
3,62 nM,"CNC(=O)COc1cc(C(=N)N)ccc1CNC(=O)c1cc(Cl)cc(Cl)c1 [Example 18.2, N-(4-carbamimidoyl-2-methylcarbamoylmethoxy-benzyl)-3,5-dichloro-benzamide hydrochloride]"
